EC50, IC50 and AC50 data for 43 molecules are collected here from ChEMBL document CHEMBL1201862, “PubChem BioAssay data set” (2004).

Molecules are shown by their SMILES. Calls of active or inactive are those of the source. Cut-off read from the data, not from the text of the source, for most assays here: actives have a measured EC50 and inactives only a lower limit.

Test [1] concerns the target T1, Heat shock factor protein 1 (Mus musculus, UniProt P38532).
T1 sequence (P38532 whole entry): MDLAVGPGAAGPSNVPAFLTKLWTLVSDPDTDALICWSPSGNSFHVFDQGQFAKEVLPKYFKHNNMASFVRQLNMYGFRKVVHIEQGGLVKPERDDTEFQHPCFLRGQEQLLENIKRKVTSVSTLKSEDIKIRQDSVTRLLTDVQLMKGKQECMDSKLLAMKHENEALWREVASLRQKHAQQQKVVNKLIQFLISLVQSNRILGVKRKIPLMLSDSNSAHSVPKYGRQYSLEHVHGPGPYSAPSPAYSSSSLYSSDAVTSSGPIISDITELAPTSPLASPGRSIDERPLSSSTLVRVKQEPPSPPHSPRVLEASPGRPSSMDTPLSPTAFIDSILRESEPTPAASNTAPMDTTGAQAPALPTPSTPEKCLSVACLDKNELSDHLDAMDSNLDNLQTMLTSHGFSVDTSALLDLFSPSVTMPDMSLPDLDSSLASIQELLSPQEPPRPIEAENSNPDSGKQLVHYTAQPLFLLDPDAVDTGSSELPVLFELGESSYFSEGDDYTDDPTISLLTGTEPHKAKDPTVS
As to the kind of experiment: enhancement of HSF1-driven luciferase signal – cell-based, NIH3T3, luminescence, dose retest, confirmation (AID 435004).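 Note: stress induced by proteasome inhibitor MG132 added 30 min after compound; luciferase reporter driven by HSF1 response element in NIH3T3 cells; actives raise luminescence as potentiators of the MG132 stress response.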 It counts as functional.

The target in test [2] is T2, Ubiquitin-conjugating enzyme E2 N (Homo sapiens, UniProt P61088).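 Note: Dose-response confirmation in a TR-FRET assay detecting UBC13-driven polyubiquitin chain formation, inhibition measured.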
T2 sequence (P61088 whole entry): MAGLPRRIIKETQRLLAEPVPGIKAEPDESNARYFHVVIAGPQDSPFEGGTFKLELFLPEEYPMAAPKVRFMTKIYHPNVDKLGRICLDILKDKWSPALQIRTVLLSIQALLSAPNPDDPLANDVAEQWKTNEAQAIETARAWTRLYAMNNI
The test is classed as functional.

For the next test, the system named is H4. As to the kind of experiment: Luminescence Cell-Based Dose Response HTS to Identify Activators of 5'UTR Stem-Loop Driven Prion Protein mRNA Translation in H4 Neuroglioblastoma Cells. [Related pubchem assays: 1829 (Project Summary), 1814 (Primary HTS)]. The test is classed as functional. Conditions: Homo sapiens.
Test [3] is described as follows: loss of viability in HepG2 cells – cell-based, CellTiter-Glo, cherry-picked, cytotoxicity control for Shn3 inhibitor project, dose response (AID 624134). It counts as functional. A general note: Cellular ATP, detected with luciferase, serves as a proxy for viable cell number.
Test [4] is described as follows: reduction of Shn3 3'UTR-driven luciferase in osteoblasts – cell-based, Clone20 osteoblasts, firefly luciferase, cherry-picked, dose response (AID 624132).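 Note: firefly luciferase luminescence from reporter carrying the Shn3 3'UTR in osteoblasts.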 The test is classed as functional.
The test system of a further test is Streptococcus. As to the kind of experiment: GAS UMAA2166 growth inhibition – luminescence, BacTiterGlo, counter-screen for streptokinase expression inhibitor project, dose response (AID 1915).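 Note: potency for reduction of bacterial viability or growth.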 The test is classed as functional, organism-based. In general terms: The purpose of a counterscreen is to sort out artefacts and off-target activity.
The test system of test [5] is Streptococcus sp. 'group A'. As to the kind of experiment: Streptococcus pyogenes SK(-)GAS viability under kanamycin – luminescence, BacTiterGlo, confirmation, counter-screen for streptokinase expression inhibitor project, dose response (AID 1900). It counts as functional, organism-based.
Test [6] can be described thus: fluconazole-exposed Candida albicans growth modulators – fluorescence, retest, confirmation (AID 2467). It counts as functional, cell-based.
Test [7] is described as follows: NIH-3T3 fibroblast cytotoxicity, dose response, cytotoxicity control, cell-based, fluorescence, Alamar Blue, secondary assay (AID 2327).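 Note: NIH-3T3 mouse fibroblasts cultured with fluconazole at 8 µg/mL.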 It counts as functional. Background: The colour change of resazurin is a common sign of viable cells or microbes.
A short description of test [8]: non-specific 3'UTR reporter inhibition in Clone20-Shn3RL – cell-based, Renilla luciferase, cherry-picked, counter-screen for Shn3 inhibitor project, dose response (AID 624133). It counts as functional.
The subject of the next test is INS1. As to the kind of experiment: INS-1E survival protection against cytokine death – cell-based, luminescence, retest, dose response (AID 449756).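 Note: cell death triggered by IL-1 beta plus TNF-alpha plus IFN-gamma mixture; protective hits raise ATP signal compared with cytokine alone wells.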 The test is classed as functional. Conditions: Rattus norvegicus.
Test [9] is described as follows: NIH3T3 cell viability loss – ATP luminescence, mouse fibroblasts, counter-screen, dose response (AID 2010).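 Note: cells exposed to compound for about 90 hours before reading.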 The test is classed as functional, cell-based.
Test [10] is described as follows: Trypanosoma cruzi growth suppression in host cells – NIH3T3 host cells, beta-gal luminescence, confirmation (AID 2044).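 Note: intracellular parasites grown in NIH/3T3 mouse fibroblasts as host cells; luminescent beta-galactosidase reporter signal from transgenic T. cruzi replicating inside host cells; inhibitors lower the luminescence signal.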 It counts as functional, cell-based.
A further test addresses Cytochrome P450 3A4 (Homo sapiens, UniProt P08684).
The nature of test [11]: Luminescence Cell-Based Dose Response HTS to Identify Activators of Luciferase Translation or Activity in H4 […] Cells. [Related pubchem assays: 1829 (Project Summary), 1814 (Primary HTS)]. The test is classed as functional.
A further test concerns the target Paired box protein Pax-8 (Homo sapiens, UniProt Q06710). As to the kind of experiment: PAX8 transcriptional activity inhibition in RMG-I – RMG-I cells, luciferase, cherry-pick, dose response (AID 687027).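 Note: luciferase reporter driven by Pax8 target thyroperoxidase promoter measured by SteadyGlo luminescence.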 The test is classed as functional, cell-based.

Paired box protein Pax-8, sequence (Q06710 whole entry): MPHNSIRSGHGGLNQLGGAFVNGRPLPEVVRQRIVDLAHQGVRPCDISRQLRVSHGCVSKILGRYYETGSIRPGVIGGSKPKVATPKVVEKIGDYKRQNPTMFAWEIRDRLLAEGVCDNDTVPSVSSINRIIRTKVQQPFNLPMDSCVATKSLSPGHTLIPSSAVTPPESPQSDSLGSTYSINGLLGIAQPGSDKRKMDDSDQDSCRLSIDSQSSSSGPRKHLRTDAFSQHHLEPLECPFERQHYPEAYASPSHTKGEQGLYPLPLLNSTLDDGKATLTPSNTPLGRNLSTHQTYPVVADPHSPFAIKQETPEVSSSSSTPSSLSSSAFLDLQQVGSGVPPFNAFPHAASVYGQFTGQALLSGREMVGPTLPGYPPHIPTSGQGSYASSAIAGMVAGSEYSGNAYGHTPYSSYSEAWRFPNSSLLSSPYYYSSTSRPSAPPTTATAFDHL
Cytochrome P450 3A4, sequence (P08684 whole entry): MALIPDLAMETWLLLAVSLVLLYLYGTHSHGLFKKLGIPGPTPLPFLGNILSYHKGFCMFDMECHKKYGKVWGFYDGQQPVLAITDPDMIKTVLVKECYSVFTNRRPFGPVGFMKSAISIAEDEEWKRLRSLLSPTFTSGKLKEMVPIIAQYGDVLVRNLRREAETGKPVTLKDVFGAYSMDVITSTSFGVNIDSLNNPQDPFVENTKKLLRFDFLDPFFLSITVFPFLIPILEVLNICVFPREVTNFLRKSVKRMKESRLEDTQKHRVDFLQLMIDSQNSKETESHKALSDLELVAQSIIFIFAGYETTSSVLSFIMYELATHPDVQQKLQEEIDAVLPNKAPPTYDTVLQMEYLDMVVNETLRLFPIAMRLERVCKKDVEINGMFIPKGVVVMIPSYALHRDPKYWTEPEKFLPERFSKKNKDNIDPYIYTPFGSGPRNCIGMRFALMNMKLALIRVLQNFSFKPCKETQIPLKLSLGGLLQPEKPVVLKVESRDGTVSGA

`COc1cc(NC(=O)c2cc([N+](=O)[O-])ccc2Br)ccc1NC(=O)c1ccco1`: the EC50 in [1] was 9.95 µM (active).
Regarding `Cc1cccc(N(C(=O)c2snc(C(N)=O)c2N)C(C(=O)NCC2CCCO2)c2c[nH]c3ccccc23)c1` (configuration not stated), the IC50 in test [2] was > 20 µM (inactive).
With `O=C(Nc1nccs1)c1cc2c(s1)-c1ccccc1OC2`, in the test with H4, the EC50 is > 120 µM (not active).
In the case of `COC(=O)C1=C(C)N(Cc2ccccc2)C(NCCc2ccccn2)=N[C@H]1c1cccc(C(F)(F)F)c1`, the IC50 in [2] is > 20 µM (inactive).
Consider `CCCCn1c(C)c(C(=O)OCC)c2c(CN3CCOCC3)c(O)ccc21`, for which the EC50 in test [1] is > 260 µM (inactive).
The same measure, in the same setting: with `Cc1ccc2c(c1)c(C)c(C)n2CC(O)Cn1nc(C)c(Br)c1C` (configuration not stated) the figure was > 260 µM (inactive).
Take `Cc1ccc(NC(=O)c2oc3ccccc3c2COC(C)C)cc1S(=O)(=O)N1CCOCC1`: the AC50 in test [3] is > 70 µM (inactive); in test [4], 14.4 µM (active).
Take `Cc1nnc(SCC2=C(C(=O)O)N3C(=O)C(NC(=O)Cn4ncc(Cl)c4C)C3SC2)s1` (configuration not stated): the EC50 was 0.117 µM (active) in the test with Streptococcus and < 0.06 µM (active) in test [5].
With `CCCn1c(=N)n(CC(=O)c2ccc([N+](=O)[O-])cc2)c2ccccc21`, the EC50 was > 38 µM (not active) in test [6] and 10.5 µM (active) in [7].
For the molecule `O=S(=O)(c1ccccc1C(F)(F)F)N1CCN(c2ncnc3sccc23)CC1`, the half-maximal activity concentration (AC50) is 8.89 µM (active) in test [3], 3.44 µM (active) in [4] and 9.4 µM (active) in test [8].
Regarding `Oc1ccc(Cl)cc1C1=NNC(c2ccc(Cl)cc2)C1` (configuration not stated), the half-maximal effective concentration (EC50) in the test with Streptococcus is 5.5 µM (active); in test [5], 2.78 µM (active).
With `CN(C)CC(O)COc1cc2ccccc2cc1C(=O)N1CCCCC1` (configuration not stated), the EC50 in test [7] is > 150 µM (inactive).
With `Cc1ccc(S(=O)(=O)c2c(N)n(-c3ccccc3)c3nc4ccccc4nc23)cc1`, in test [1], the 50% effective concentration (EC50) is 28.6 µM (active).
As for `Cc1cc(C(=O)c2ccc3ccccc3c2)c(C)o1`, in the test with INS1, the AC50 was > 260 µM (inactive).
In the case of `CCN1CCN(c2cc(C)c3cc(NC(=S)N4CCN(c5ccc(F)cc5)CC4)ccc3n2)CC1`, the IC50 in test [2] was > 20 µM (inactive).
On the same count and under the same terms, in the case of `C#CCOCCOCCOCCNc1nc(N2CCN(C(=O)C([C@@H](C)O)n3cc([C@@H](N)CCCCN)nn3)CC2)nc(N2CCN(C(=O)C([C@@H](C)O)n3cc([C@@H](N)CCCCN)nn3)CC2)n1` (some centres not stated) it was > 20 µM (inactive).
Turning to `Cc1ccccc1OCC(O)CN1CCN(CCN2C(=O)c3cccc4cccc(c34)C2=O)CC1` (configuration not stated), the EC50 in test [9] was > 60 µM (inconclusive); in test [10], 0.851 µM (active). In test [2], the IC50 was > 20 µM (inactive).
Take `CC(=O)O[C@H]1CC[C@H]2[C@@H]3CC[C@H]4[C@@H](O)[C@H](O)CC[C@]4(C)[C@H]3CC[C@]12C`: the AC50 in test [4] is > 70 µM (inactive).
On to `Cc1ccccc1Cn1c(-c2cncs2)nc2ccccc21`, for which the EC50 in test [1] is > 260 µM (inactive).
Take `COc1ccc(NC(=O)CSc2nc(O)cc(=O)n2-c2ccc(OC)cc2)cc1`: the figures for the concentration for a half-maximal effect (EC50) (in the test on Streptococcus; in test [5]) were 26 µM (inconclusive) and 13.9 µM (active), respectively.
Turning to `O=C(COC(=O)Cn1cnc2ccccc2c1=O)NCc1ccccc1Cl`, the IC50 in test [2] is > 20 µM (inactive).
In the case of `O=C(CC12CCC(CC1)C2)NCc1ccc2c(c1)OCO2`, in [1], the EC50 is > 260 µM (inactive).
On the same count and under the same terms, with `CCn1c(=O)n(CC)c2cc(S(=O)(=O)Nc3ccccc3C)c(C)cc21` the figure was > 260 µM (inactive); with `Cc1ccc(NC(=O)c2sc(N)nc2-c2ccc([N+](=O)[O-])cc2)c(C)c1`, > 260 µM (inactive).
Regarding `COc1cc(-c2nnc(NC(=O)c3ccc(S(=O)(=O)N4CCOCC4)cc3)o2)cc(OC)c1OC`, the EC50 in test [6] is 5.71 µM (active); in test [7], > 160 µM (inactive).
Regarding `CCC(=O)Nc1c(S(=O)(=O)c2ccccc2)c2nc3ccccc3nc2n1C(C)c1ccccc1` (configuration not stated), the EC50 in test [1] is > 260 µM (inactive).
Same read-out and setting: with `COc1ccc(NC(=O)COc2ccccc2Cc2ccccc2)cc1S(N)(=O)=O` the figure was > 260 µM (inactive).
Take `COc1ccc(Cc2nn3c(O)cc(C(C)C)nc3c2-c2ccccc2)cc1`: the values for the concentration giving a half-maximal response (EC50) (with Streptococcus; in [5]) were 4.68 µM (active) and 1.78 µM (active), respectively.
As to `Oc1ccc(Cl)cc1Nc1nc(NCC2CCCO2)c2ccccc2n1` (configuration not stated), in test [2], the IC50 is > 20 µM (inactive).
Consider `COc1cc(N=C(S)NC(C)(C)C)c(OC)cc1Cl`, for which the EC50 in [1] is > 260 µM (inactive).
Turning to `COc1ccc(/C=N/NC(=O)c2ccc(-c3ccccc3)cc2)cc1O`, the EC50 is 0.036 µM (active) in test [6] and > 150 µM (inactive) in test [7].
For the molecule `COc1ccc(NC(=O)CCOc2cc(C)ccc2C)cc1S(=O)(=O)N1CCCCC1`, the AC50 in test [4] is 10.4 µM (active).
With `CCc1ccc(C(=O)NNc2ccc(F)cc2F)cc1`, the results for the EC50 in test [6] and in test [7] were > 38 µM (not active) and > 150 µM (inactive), respectively.
Consider `COc1ccc(/C=C2\OC(=O)c3c(OC)cccc32)cc1OC`, for which the EC50 in the test on H4 is 22.4 µM (active); in test [11], 7.38 µM (active). Besides, the half-maximal activity concentration (AC50) on Cytochrome P450 3A4 was 10 µM (inconclusive).
For the molecule `CCOC(=O)CSc1cc(-c2ccccc2)nc2ncnn12`, the EC50 in test [1] is 22.8 µM (active).
Consider `O=C(Nc1ccc(Cl)c(Cl)c1)N[C@@H]1CC[C@H](CCn2cc(C3CCCCC3)nn2)O[C@H]1CO`, for which the half-maximal activity concentration (AC50) on Paired box protein Pax-8 was 19.7 µM (active).
With `O=C(N/N=C/c1ccc[nH]1)c1cc2ccccc2cc1O`, the concentration giving a half-maximal response (EC50) in test [6] is > 38 µM (not active); in [7], > 160 µM (inactive).
`CN1c2ccc(C#Cc3cccnc3)cc2[C@@H]2[C@@H](CCN2C(=O)Cc2cccnc2)[C@@H]1CO`: on Paired box protein Pax-8, the AC50 was 57.2 µM (active).
`CCC(=O)NC(C)c1cc(Cl)c2cccnc2c1O` (configuration not stated): the results for the AC50 in test [3], in test [4] and in test [8] were 9.85 µM (active), 5.19 µM (active) and 1.62 µM (active), respectively.
In the case of `Cc1nn(C)cc1/C=N\NC(=O)c1ccc2c(c1)c(C)c(C)n2Cc1ccccc1`, in test [1], the EC50 was 67.7 µM (active).
For `CCN(CC)c1ccc(/C=C/C(=O)c2cccnc2)cc1`, the EC50 was 0.065 µM (active) in [6] and > 150 µM (inactive) in [7].
With `O=C(N/N=C1\CC(c2ccccc2)Oc2ccccc21)c1ccc(O)cc1` (configuration not stated), the EC50 in [1] was > 260 µM (inactive).
On to `Cc1ccc(N2C(=O)CSC2c2cccnc2)c(Cl)c1` (configuration not stated), for which the AC50 in the test with INS1 was > 260 µM (inactive).

By EC50 is commonly meant the midpoint of the concentration-response curve. In general, IC50 refers to the concentration that inhibits the measured activity by half. For orientation: AC50 means the concentration at which the activity in the assay is half-maximal.
